Data reported in ChEMBL document CHEMBL6071134, “Novel bibenzyl compound Ae exhibits anti-agiogenic activity in HUVECs in vitro and zebrafish in vivo” (Bioorg Med Chem, 2024).
Calls of active or inactive are those of the source. The calls are words filed in the database; no cut-off is given here.

Legend:
Danio rerio [1] = organism: Danio rerio; assay: Antiangiogenic activity against transgenic zebrafish model assessed as inhibition of inter-segmental blood vessels of embryo measured after 72 hrs post fertilization by fluorescence microscopy based analysis; format: functional, organism-based; settings: dose 0.625-2.5 µM
Danio rerio [2] = organism: Danio rerio; assay: Antiangiogenic activity against transgenic zebrafish model assessed as inhibition of inter-segmental blood vessels of embryo at 0.625 uM measured after 72 hrs post fertilization by fluorescence microscopy based analysis; format: functional, organism-based
Danio rerio [3] = organism: Danio rerio; assay: Antiangiogenic activity against transgenic zebrafish model assessed as inhibition of inter-segmental blood vessels of embryo at 2.5 uM measured after 72 hrs post fertilization by fluorescence microscopy based analysis relative to control; format: functional; design: scale not given: the % may be the effect or the level left
[4] = Toxicity in transgenic zebrafish at 2.5 uM measured after 72 hrs; design: species or system Danio rerio; settings: in vivo
[5] = (§1) Antiproliferative activity against HUVEC cells measured after 48 hrs by CCK-8 method; format: toxicity, cell-based; settings: human, HUVEC cells
HUVEC [6] = assay: as §1; format: toxicity, cell-based; settings: human, huvec, 48 h; dose 0.062-16 µM
HUVEC [7] = assay: Inhibition of cell migration in HUVEC cells at 0.25 uM by crystal violet staining based Boyden chamber assay; format: functional; settings: Homo sapiens
HUVEC [8] = assay: Inhibition of cell migration in HUVEC cells at 0.25 uM by crystal violet staining based Boyden chamber assay relative to control; format: functional; settings: Homo sapiens
HUVEC [9] = assay: Inhibition of cell migration in HUVEC cells at 0.5 uM by crystal violet staining based Boyden chamber assay relative to control; format: functional; settings: Homo sapiens
HUVEC [10] = assay: Inhibition of cell migration in HUVEC cells at 1 uM by crystal violet staining based Boyden chamber assay relative to control; format: functional; settings: Homo sapiens
HUVEC [11] = assay: Inhibition of cell migration in HUVEC cells at 2 uM by crystal violet staining based Boyden chamber assay relative to control; format: functional; settings: Homo sapiens
HUVEC [12] = assay: Inhibition of cell migration in HUVEC cells assessed as […] in wound closure area at 0.25 to 2 uM incubated for 12 hrs by crystal violet staining based wound healing assay relative to DMSO; format: functional; settings: Homo sapiens, dose 0.25-2 µM
HUVEC [13] = assay: Inhibition of cell migration in HUVEC cells incubated for 12 hrs by crystal violet staining based wound healing assay; format: functional; settings: Homo sapiens, dose 0.25-2 µM
HUVEC [14] = assay: Inhibition of cell invasion in HUVEC cells measured after 24 hrs by crystal violet staining based inverted fluorescence microscopy analysis; format: functional; settings: Homo sapiens, dose 0.25-2 µM
HUVEC [15] = assay: Inhibition of cell invasion in HUVEC cells assessed as reduction in number of invading cells at 2 uM measured after 24 hrs by crystal violet staining based inverted fluorescence microscopy analysis relative to control; format: functional; settings: Homo sapiens
HUVEC [16] = assay: Anti-angiogenesis activity in HUVEC cells assessed as reduction in total tube length at 1 uM incubated for 12 hrs by inverted microscopic analysis relative to control; format: functional, Homo sapiens; design: scale not given: the % may be the effect or the level left
HUVEC [17] = assay: Anti-angiogenesis activity in HUVEC cells assessed as reduction in total tube length at 2 uM incubated for 12 hrs by inverted microscopic analysis relative to control; format: functional, Homo sapiens; design: scale not given: the % may be the effect or the level left
HUVEC [18] = assay: Anti-angiogenesis activity in HUVEC cells assessed as appearance of broken tubule network structure at 0.25 to 2 uM incubated for 12 hrs by inverted microscopic analysis; format: functional, cell-based; settings: Homo sapiens, dose 0.25-2 µM
HUVEC [19] = assay: Anti-angiogenesis activity in HUVEC cells assessed as appearance of incomplete tubule network structure at 0.25 to 2 uM incubated for 12 hrs by inverted microscopic analysis; format: functional, cell-based; settings: Homo sapiens, dose 0.25-2 µM
HUVEC [20] = assay: Anti-angiogenesis activity in HUVEC cells assessed as appearance of few branches in tubule network structure at 0.25 to 2 uM incubated for 12 hrs by inverted microscopic analysis; format: functional, cell-based; settings: Homo sapiens, dose 0.25-2 µM
HUVEC [21] = assay: Anti-angiogenesis activity in HUVEC cells assessed as appearance of shorter tubule length at 0.25 to 2 uM incubated for 12 hrs by inverted microscopic analysis; format: functional, cell-based; settings: Homo sapiens, dose 0.25-2 µM
Danio rerio [22] = organism: Danio rerio; assay: Anti-angiogenesis activity in zebrafish embryo assessed as downregulation of ang-2 mRNA expression at 0.5 to 5 uM measured after 24 hrs by qRT-PCR analysis; format: functional, organism-based; settings: dose 0.5-5 µM
Danio rerio [23] = organism: Danio rerio; assay: Anti-angiogenesis activity in zebrafish embryo assessed as downregulation of tek mRNA expression at 0.5 to 5 uM measured after 24 hrs by qRT-PCR analysis; format: functional, organism-based; settings: dose 0.5-5 µM
Danio rerio [24] = organism: Danio rerio; assay: Anti-angiogenesis activity in zebrafish embryo assessed as downregulation of kdr mRNA expression at 0.5 to 5 uM measured after 24 hrs by qRT-PCR analysis; format: functional, organism-based; settings: dose 0.5-5 µM
Danio rerio [25] = organism: Danio rerio; assay: Anti-angiogenesis activity in zebrafish embryo assessed as downregulation of kdr1 mRNA expression at 0.5 to 5 uM measured after 24 hrs by qRT-PCR analysis; format: functional, organism-based; settings: dose 0.5-5 µM
Danio rerio [26] = organism: Danio rerio; assay: Anti-angiogenesis activity in zebrafish embryo assessed as effect on […]-mRNA expression at 0.5 to 5 uM measured after 24 hrs by qRT-PCR analysis; format: functional, organism-based; settings: dose 0.5-5 µM
Danio rerio [27] = organism: Danio rerio; assay: Anti-angiogenesis activity in zebrafish embryo assessed as effect on flt-1 mRNA expression at 0.5 to 5 uM measured after 24 hrs by qRT-PCR analysis; format: functional, organism-based; settings: dose 0.5-5 µM
Danio rerio [28] = organism: Danio rerio; assay: Anti-angiogenesis activity in zebrafish embryo assessed as effect on fgf2 mRNA expression at 0.5 to 5 uM measured after 24 hrs by qRT-PCR analysis; format: functional, organism-based; settings: dose 0.5-5 µM
Danio rerio [29] = organism: Danio rerio; assay: Anti-angiogenesis activity in zebrafish embryo assessed as effect on fgfr2 mRNA expression at 0.5 to 5 uM measured after 24 hrs by qRT-PCR analysis; format: functional, organism-based; settings: dose 0.5-5 µM

With `COc1cc(CCc2ccccc2Cl)cc(OC)c1O` the Activity (Danio rerio [1]) was “Dose-Dependent Effect”, the Activity (Danio rerio [2]) was “Active” and the Activity (Danio rerio [3]) was 100%. The Activity [4] was “Toxic”, the IC50 at 48 h [5] was 1.7 µM and the Activity (HUVEC [6]) was “Dose-Dependent Effect”. For the same compound, the inhibition (HUVEC [7]) was “Active”, the inhibition at 0.25 µM (HUVEC [8]) was about 37.2% and the inhibition at 0.5 µM (HUVEC [9]) was about 64.4%. The inhibition at 1 µM (HUVEC [10]) was about 71.3%, the inhibition at 2 µM (HUVEC [11]) was about 78.5% and the inhibition (HUVEC [12]) was “Active”. For the same compound, the inhibition (HUVEC [13]) was “Dose-Dependent Effect”, the inhibition (HUVEC [14]) was “Dose-Dependent Effect” and the inhibition at 2 µM (HUVEC [15]) was 17.4%. The Activity (HUVEC [16]) was 38.7%, the Activity (HUVEC [17]) was 22.6% and the Activity (HUVEC [18]) was “Active”. The Activity (HUVEC [19]) was “Active”, the Activity (HUVEC [20]) was “Active” and the Activity (HUVEC [21]) was “Active”. The Activity (Danio rerio [22]) was “Active”, the Activity (Danio rerio [23]) was “Active” and the Activity (Danio rerio [24]) was “Active”. The Activity (Danio rerio [25]) was “Active”, the Activity (Danio rerio [26]) was “inactive” and the Activity (Danio rerio [27]) was “inactive”. For the same compound, the Activity (Danio rerio [28]) was “inactive” and the Activity (Danio rerio [29]) was “inactive”.
